“And” between values parts separate entries of the source, which are not always exact repeats. Equal values may be shown once.
What was measured:
[1] = system: Adriamycin (ADR)-induced nephropathy in Balb/c mice; assay: ADR nephropathy: kidney cortex lipids (cholesterol ester, total cholesterol, triglycerides, Oil-red O); format: in vivo, mouse; settings: ADR model; individual animals
Protocol: OCT embedded kidney cortex samples were cryosectioned at 4 μm thickness and stained with Oil-Red O-isopropanol solution (Electron Microscopy Science, PA) diluted 6:4 in water, and then counterstained with Hematoxylin Harris Hg Free (VWR, PA). Sections were then evaluated using a light microscope (Olympus BX 41, Tokyo, Japan).
Snap frozen kidney cortex samples were homogenized in 2 mM potassium phosphate buffer, pH 7, (10 µl buffer/mg tissue) using a glass douncer on ice. 100 μl of the homogenate were mixed thoroughly with 1 ml of hexane:isopropanol (3:2;v:v) per volume of tissue homogenate. The aqueous (pellet) and organic (supernatant) phases were separated by centrifugation at 12,000 × g for 5 min. Pellets (aqueous phase) were dried, reconstituted in 8 M urea, 0.1% SDS, 0.1 M NaOH, and total proteins were quantified by the BCA method (Thermofisher). The organic phase was dried by exposure to nitrogen. Lipids were then reconstituted in 100 µl isopropanol:NP-40 (9:1;v:v). Triglyceride content was assayed using a colorimetric kit according to the manufacturer’s instructions (Cayman Chemical USA). Total cholesterol and CE content were assayed using an enzymatic fluorometric method. For total cholesterol measurement, extracts were diluted 1:100 in assay buffer (100 mM potassium phosphate, 50 mM NaCl, 5 mM cholic acid, 0.1% Triton […], pH 7.4) containing cholesterol oxidase (1 U/ml), cholesterol esterase (1 U/ml), horseradish peroxidase (1 U/ml), and Amplex Red (75 µM). The reactions were incubated at 37 °C for 30 min in a black opaque 96-well plate (Greiner) and fluorescence was measured in a microplate reader (Spectramax i3X, Molecular Devices) at 530 nm excitation and 580 emission.
For CE determination, 150 µl of the assay buffer described above, supplemented with bovine liver catalase (45 U/ml) and cholesterol oxidase (1 U/ml), was added to 25 μl of sample and incubated overnight at 37 °C to deplete free cholesterol leaving only cholesterol esters. Then, 75 µl of cholesterol ester detection reagent (1 U/ml cholesterol oxidase, 4 U/ml cholesterol esterase, 24 U/ml horseradish peroxidase, 300 µM Amplex Red) was added. The reaction was incubated at 37 °C for 30 min and the fluorescence signal was measured as described above. Internal standards included samples containing 1 mM of cholesterol and 5 μM of cholesterol oleate in order to verify the completeness of the enzymatic decomposition of free cholesterol as well as assay sensitivity and specificity.

[2] = system: Adriamycin (ADR)-induced nephropathy in Balb/c mice; assay: ADR nephropathy: WBC, hemoglobin, hematocrit, ALT, AST; format: in vivo, mouse; settings: ADR-induced nephropathy
ABCA1 protein = assay: Cell fractionation: ABCA1 in plasma membrane and microsomal fractions of podocytes; format: cell-based, human; settings: podocytes; Cpd A 5 µM, Cpd G 10 µM
Protocol: Lysates, or cell fractions were incubated in Laemmli buffer at 55 °C for 10 min under reducing conditions. A total of 30 μg of protein from cell lysates or one-third of the volume collected in cell fraction preparations was separated by SDS-PAGE in 4–20% gradient gels (Biorad) and proteins were then transferred to PVDF membranes. After blocking with 5% TBS-milk, membranes were probed with primary antibodies overnight at 4 °C. The following primary antibodies were used: mouse anti-ABCA1 (Abcam; 1:1000), rabbit anti-GAPDH antibody (Millipore; 1:10,000), mouse anti-actin (CP01, Millipore 1:10,000), anti-MEK, anti-ERp72, anti-V5 and anti-Na^+/K^+ ATPase (Cell Signaling; all 1:1000), and rabbit anti-OSBPL7 (Sigma; 1:1000). After washing, membranes were incubated with anti-rabbit or and anti-mouse IgG-HRP antibodies (Promega, 1:10,000). Signals were detected after incubation with Westernbright ECL HRP substrate (Advansta) and luminescence signals were captured with Azure C600 Gel Imaging workstation (Azure Biosystems Inc, USA) or X-ray films.
Differentiated podocytes were treated with compounds Cpd C (1 μM), Cpd A (5 μM), or Cpd G (10 μM) for 18 h, washed and then harvested in ice-cold PBS. Cells were centrifuged at 1000 × g for 5 min, the supernatant was carefully removed, and the pellet resuspended in hypotonic buffer (15 mM KCl, 1.5 mM MgCl2, 10 mM HEPES and 1 mM DTT) supplemented with a protease inhibitor cocktail (Roche). Cells were disrupted with a glass douncer, and sucrose was added to achieve final concentration of 227 mM. Cell lysates were centrifuged at 1000 × g for 30 min at 4 °C. The supernatant was then transferred to a new tube and centrifuged at 10,000 × g for 15 min at 4 °C. The pellet, containing the microsomal fraction was collected and the supernatant was transferred to a new tube and centrifuged at 100,000 × g for 1 h at 4 °C. The pelleted plasma membrane fraction was collected and the supernatant, containing the organelle-free cytosolic fraction, was concentrated in Vivaspin 500 filter columns. Western blot was performed using antibodies for ABCA1 and specific markers for each membrane fraction as described above. Na^+/K^+ ATPase was used to identify the plasma membrane fraction, ERp72 as a marker for the microsomal-enriched fraction, and MEK as the control for the non-membranous cytosolic fraction.

[3] = system: Adriamycin (ADR)-induced nephropathy in Balb/c mice; assay: ADR nephropathy: liver total cholesterol, cholesterol esters, triglycerides; format: in vivo, mouse
[4] = 28 days treatment, 25th quartile
[5] = 28 days treatment, 75th quartile
[6] = 28 days treatment, group maximum
[7] = 28 days treatment, group median
[8] = 28 days treatment, group minimum
[9] = 28 days treatment, individual mouse values

O=C(N[C@@H]1CCCC[C@H]1O)c1ccc(OCC(F)(F)F)c(-c2ccc(Cl)c(Cl)c2)n1 [Cpd A]
KIDNEY CORTEX TOTAL CHOLESTEROL [1]: 116.65 nmol Chol./mg protein and 64.31 nmol Chol./mg protein and 91.93 nmol Chol./mg protein and 226.3 nmol Chol./mg protein and 280.19 nmol Chol./mg protein and 194.83 nmol Chol./mg protein and 293.03 nmol Chol./mg protein and 87.04 nmol Chol./mg protein and 85.55 nmol Chol./mg protein and 75 nmol Chol./mg protein and 105.96 nmol Chol./mg protein
KIDNEY CORTEX TRIGLYCERIDES [1]: 65.49 nmol Triglyceride /mg protein and 206.46 nmol Triglyceride /mg protein and 31.6 nmol Triglyceride /mg protein and 59.01 nmol Triglyceride /mg protein and 14.83 nmol Triglyceride /mg protein and 65.84 nmol Triglyceride /mg protein and 43.06 nmol Triglyceride /mg protein and 145.74 nmol Triglyceride /mg protein and 110.74 nmol Triglyceride /mg protein
ALT, Median (IQR) [2]: 256 (90.3-625) U/L
ALT, Range [2]: 88-766 U/L
AST, Median (IQR) [2]: 326 (213-500) U/L
AST, Range [2]: 200-685 U/L
HTC, Median (IQR) [2]: 54 (50-56) %
HTC, Range [2]: 47-62%
Hgb, Median (IQR) [2]: 13.6 g/dL
Hgb, Range [2]: 12.1 to 15.5 g/dL
WBC, Range [2]: 3.7-7.0 x103cells/µL
ALT, QR(25) [2, 4]: 130.75 U/L
AST, QR(25) [2, 4]: 232.75 U/L
HTC, QR(25) [2, 4]: 51.25%
Hgb, QR(25) [2, 4]: 13.1 g/dL
WBC, QR(25) [2, 4]: 3.925 x 10^3 cells/ul
ALT, QR(75) [2, 5]: 499.25 U/L
AST, QR(75) [2, 5]: 421.5 U/L
HTC, QR(75) [2, 5]: 55.5%
Hgb, QR(75) [2, 5]: 13.9 g/dL
WBC, QR(75) [2, 5]: 7.375 x 10^3 cells/ul
ALT, Max [2, 6]: 766 U/L
AST, Max [2, 6]: 685 U/L
HTC, Max [2, 6]: 62%
Hgb, Max [2, 6]: 15.5 g/dL
WBC, Max [2, 6]: 8.2 x 10^3 cells/ul
ALT, Median [2, 7]: 256.5 U/L
AST, Median [2, 7]: 326 U/L
HTC, Median [2, 7]: 54%
Hgb, Median [2, 7]: 13.6 g/dL
WBC, Median [2, 7]: 5.5 x 10^3 cells/ul
ALT, Min [2, 8]: 88 U/L
AST, Min [2, 8]: 200 U/L
HTC, Min [2, 8]: 47%
Hgb, Min [2, 8]: 12.1 g/dL
WBC, Min [2, 8]: 3.7 x 10^3 cells/ul
Alanine Aminotransferase (ALT) [2, 9]: 766 U/dL and 263 U/dL and 250 U/dL and 88 U/dL and 91 U/dL and 578 U/dL
Aspartate Aminotransferase (AST) [2, 9]: 685 U/dL and 372 U/dL and 280 U/dL and 200 U/dL and 217 U/dL and 438 U/dL
Hematocrit HTC [2, 9]: 58% and 54% and 62% and 47% and 56% and 52% and 48% and 51%
White Blood Cells WBC [2, 9]: 7.7 x 10^3 cells/ul and 8.2 x 10^3 cells/ul and 4.7 x 10^3 cells/ul and 3.8 x 10^3 cells/ul and 4.3 x 10^3 cells/ul and 3.7 x 10^3 cells/ul and 7 x 10^3 cells/ul and 6.3 x 10^3 cells/ul and 7.5 x 10^3 cells/ul
ABCA1 at the plasma membrane (ABCA1 protein): increased ABCA1 at the plasma membrane
ABCA1 in microsomal fractions (ABCA1 protein): did not increase ABCA1 in microsomal fractions
LIVER CHOLESTEROL ESTERS ([3]; ADR model, individual animals): 1.39 nmol CE/ mg protein and 2.25 nmol CE/ mg protein and 2.79 nmol CE/ mg protein and 8 nmol CE/ mg protein and 3.82 nmol CE/ mg protein and 8.05 nmol CE/ mg protein
LIVER TOTAL CHOLESTEROL ([3]; ADR model, individual animals): 120 nmol Cholesterol/ mg protein and 119 nmol Cholesterol/ mg protein and 149 nmol Cholesterol/ mg protein and 163 nmol Cholesterol/ mg protein and 112 nmol Cholesterol/ mg protein and 195 nmol Cholesterol/ mg protein
LIVER TRIGLICERIDES ([3]; ADR model, individual animals): 75 nmol Triglycerides/ mg protein and 54.7 nmol Triglycerides/ mg protein and 58 nmol Triglycerides/ mg protein and 69 nmol Triglycerides/ mg protein and 38 nmol Triglycerides/ mg protein and 54.5 nmol Triglycerides/ mg protein
Hepatic triglyceride content vs. vehicle-treated controls ([3]; ADR-challenged, 28 days): increased hepatic triglyceride content

— article PMC8329197, “Compounds targeting OSBPL7 increase ABCA1-dependent cholesterol efflux preserving kidney function in two models of kidney disease” (Nature Communications, 2021)
